Reference: article PMC8552062, “Contributions of UDP-Glucuronosyltransferases to Human Hepatic and Intestinal Metabolism of Ticagrelor and Inhibition of UGTs and Cytochrome P450 Enzymes by Ticagrelor and its Glucuronidated Metabolite” (Frontiers in Pharmacology, 2021)

Tests used:
Type in all cases: in vitro ADME
[1] = target: T1, recombinant human UGT1A10 (Homo sapiens, UniProt Q9HAW8); test: Ticagrelor glucuronidation screen, recombinant human UGT1A10; settings: 10 μM ticagrelor
T1 construct: purchased BD Gentest; host or cells: baculovirus-infected insect cells
Procedure: (§1) Ticagrelor glucuronidation was investigated in an in vitro incubation system by using HLM, HIM, and recombinant human UGTs. The incubation system consisted of enzyme sources (HLM, HIM, or human recombinant UGTs), various concentrations of ticagrelor (dissolved in 50% methanol, 1% v/v, 1, 2, 5, 10, 20, 50, 100, 200, 500 μM of final concentration), alamethicin (50 μg/mg protein), 5 mM MgCl2, 100 mM tris-HCL buffer (pH 7.4), and 5 mM UDPGA in a total volume of 100 μl. Alamethicin is a pore-forming polypeptide used to activate UGTs in HLM and HIM ([Fisher et al., 2000]). Preliminary studies were conducted to determine the optimal protein concentrations and incubation times. Linear conditions of ticagrelor-O-Glu formation from ticagrelor, i.e., HLM, 0.2 mg of protein/ml and 60 min, HIM, 0.2 mg of protein/ml and 60 min, and recombinant human UGTs, 0.2 mg of protein/ml and 60 min were selected. The incubation mixture without UDPGA was placed on ice for 15 min to activate UGT by alamethicin. After pre-incubation for 5 min at 37°C, the reactions were started by the addition of UDPGA. After another 60 min of incubation at 37°C, the reaction was terminated by adding 100 μl of acetonitrile containing internal standard (diazepam). The mixture vortexed for 2 min and then centrifuged at 14,000 rpm for 10 min at 4°C. […]

UGT1A7 = target: T2, UGT1A7 (Homo sapiens, UniProt Q9HAW7); test: Ticagrelor glucuronidation by recombinant human UGT1A7; settings: recombinant human UGT1A7, pH 7.4
T2 construct: purchased BD Gentest; host or cells: baculovirus-infected insect cells
Procedure: as §1, with “alamethicin.” for “alamethicin. After pre-incubation for 5 min at 37°C, the reactions were started by the addition of UDPGA. After another 60 min of incubation at 37°C, the reaction was terminated by adding 100 μl of acetonitrile containing internal standard (diazepam). The mixture vortexed for 2 min and then centrifuged at 14,000 rpm for 10 min at 4°C.”
(§2) Kinetic analyses were performed using the mean values of triplicate determinations with either pooled HLM, HIM, or recombinant human UGTs. All data were analyzed by nonlinear regression analysis using the GraphPad Prism 6 (GraphPad Software Inc., CA, United States). […] Intrinsic clearance (CLint) was calculated by dividing Vmax by Km.

[2] = tested on: human intestinal microsomes (HIM); test: Ticagrelor glucuronidation kinetics in pooled HIM
Procedure: Ticagrelor glucuronidation was investigated in an in vitro incubation system by using HLM, HIM, and recombinant human UGTs. The incubation system consisted of enzyme sources (HLM, HIM, or human recombinant UGTs), various concentrations of ticagrelor (dissolved in 50% methanol, 1% v/v, 1, 2, 5, 10, 20, 50, 100, 200, 500 μM of final concentration), alamethicin (50 μg/mg protein), 5 mM MgCl2, 100 mM tris-HCL buffer (pH 7.4), and 5 mM UDPGA in a total volume of 100 μl. Alamethicin is a pore-forming polypeptide used to activate UGTs in HLM and HIM ([Fisher et al., 2000]). Preliminary studies were conducted to determine the optimal protein concentrations and incubation times. Linear conditions of ticagrelor-O-Glu formation from ticagrelor, i.e., HLM, 0.2 mg of protein/ml and 60 min, HIM, 0.2 mg of protein/ml and 60 min, and recombinant human UGTs, 0.2 mg of protein/ml and 60 min were selected. The incubation mixture without UDPGA was placed on ice for 15 min to activate UGT by alamethicin. After pre-incubation for 5 min at 37°C, the reactions were started by the addition of UDPGA. After another 60 min of incubation at 37°C, the reaction was terminated by adding 100 μl of acetonitrile containing internal standard (diazepam). The mixture vortexed for 2 min and then centrifuged at 14,000 rpm for 10 min at 4°C. The resulting supernatant was injected into a liquid chromatography tandem mass spectrometry (LC-MS/MS, Applied Biosystems/MDS Sciex, Foster City, CA) system for the detection of ticagrelor-O-Glu.
as §2, with “States). Michaelis-Menten kinetics (Eq. 1) or substrate inhibition kinetics (Eq. 2) ([Houston and Kenworthy, 2000]) were tested to determine the optimal model for describing the data.” for “States).”

UGT1A8 = target: T3, UGT1A8 (Homo sapiens, UniProt Q9HAW9); test: Ticagrelor glucuronidation by recombinant human UGT1A8; settings: recombinant human UGT1A8, pH 7.4
T3 construct: purchased BD Gentest; host or cells: baculovirus-infected insect cells
Procedure: as §1, with “alamethicin.” for “alamethicin. After pre-incubation for 5 min at 37°C, the reactions were started by the addition of UDPGA. After another 60 min of incubation at 37°C, the reaction was terminated by adding 100 μl of acetonitrile containing internal standard (diazepam). The mixture vortexed for 2 min and then centrifuged at 14,000 rpm for 10 min at 4°C.”
as §2

CYP2C19 = target: T4, CYP2C19 (Homo sapiens, UniProt P33261); test: CYP2C19 inhibition in HLM ([S]-mephenytoin 4′-hydroxylase)
T4 construct: co-incubation ticagrelor-O-Glu with selective P450 probe substrates in HLM; tissue XenoTech LLC; host or cells: pooled human liver microsomes
Procedure: (§3) The potential inhibitory effects of ticagrelor-O-Glu on the activities of major CYPs, i.e., CYP2B6, CYP2C8, CYP2C9, CYP2C19, CYP2D6, and CYP3A4, were evaluated by co-incubation ticagrelor-O-Glu with selective P450 probe substrates in HLM. Each incubation mixture containing 0.2 mg/ml HLM, ticagrelor-O-Glu and respective substrate (the final substrate concentrations are close to or less than the Km values: 150 μM bupropion, 1.26 μM amodiaquine, 10 μM diclofenac, 20 μM mephenytoin, 20 μM dextromethorphan and 80 μM testosterone (in house data)) in potassium phosphate buffer (100 mM, pH 7.4) was pre-incubated at 37°C for 5 min. Then, NADPH (10 mM) was added to initiate the reaction. The final volume of the incubation mixture was 100 μl. After incubation at 37°C for specific time points, the reaction was terminated by the addition of 200 μl of ice-cold methanol solution with internal standards (diazepam and furafylline). Preliminary screening experiments with selected concentrations of ticagrelor-O-Glu (0, 1, 10, or 100 μM of the final concentration) were carried out to determine the inhibition potency. For those that produced approximately 50% inhibition of CYPs enzyme activities at a ticagrelor-O-Glu concentration between 1 and 100 μM, IC50 was further determined with various concentrations of ticagrelor-O-Glu (0, 1, 5, 10, 20, 50, and 100 μM). All the experiments were performed in triplicates. The supernatant was obtained after centrifugation at 14,000 rpm for 10 min and injected into LC-MS/MS for the analysis of the respective metabolites. The formation of respective metabolites was determined to reflect P450 isoform activities. The metabolites quantified for CYP2B6, CYP2C8, CYP2C9, CYP2C19, CYP2D6, and CYP3A4 were hydroxy bupropion, N-Desethyl amodiaquine, 4′-hydroxylation diclofenac, S-4-hydroxy mephenytoin, dextrorphan and 6β-hydroxy testosterone, respectively.
(§4) The percent inhibition relative to the control was calculated to indicate the UGTs or CYPs inhibition. […]

CYP2C9 = target: T5, CYP2C9 (Homo sapiens, UniProt P11712); test: CYP2C9 inhibition in HLM (diclofenac 4′-hydroxylase)
T5 construct: co-incubation ticagrelor-O-Glu with selective P450 probe substrates in HLM; tissue XenoTech LLC; host or cells: pooled human liver microsomes
Procedure: as §3, §4

T4 sequence (P33261 whole entry): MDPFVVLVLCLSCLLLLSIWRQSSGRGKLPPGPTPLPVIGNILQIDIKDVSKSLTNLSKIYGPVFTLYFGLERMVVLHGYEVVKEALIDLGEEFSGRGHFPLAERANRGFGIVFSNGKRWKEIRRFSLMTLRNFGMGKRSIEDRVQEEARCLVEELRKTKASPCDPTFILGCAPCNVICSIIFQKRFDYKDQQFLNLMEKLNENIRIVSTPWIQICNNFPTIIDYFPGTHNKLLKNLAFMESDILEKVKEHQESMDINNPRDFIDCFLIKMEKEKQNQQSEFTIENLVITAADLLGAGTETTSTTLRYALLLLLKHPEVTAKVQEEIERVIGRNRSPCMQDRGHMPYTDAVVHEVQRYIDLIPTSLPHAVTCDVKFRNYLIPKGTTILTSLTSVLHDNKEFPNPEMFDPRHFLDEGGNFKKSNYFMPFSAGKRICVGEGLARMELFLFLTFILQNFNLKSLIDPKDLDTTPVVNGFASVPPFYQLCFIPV
T5 sequence (P11712 whole entry): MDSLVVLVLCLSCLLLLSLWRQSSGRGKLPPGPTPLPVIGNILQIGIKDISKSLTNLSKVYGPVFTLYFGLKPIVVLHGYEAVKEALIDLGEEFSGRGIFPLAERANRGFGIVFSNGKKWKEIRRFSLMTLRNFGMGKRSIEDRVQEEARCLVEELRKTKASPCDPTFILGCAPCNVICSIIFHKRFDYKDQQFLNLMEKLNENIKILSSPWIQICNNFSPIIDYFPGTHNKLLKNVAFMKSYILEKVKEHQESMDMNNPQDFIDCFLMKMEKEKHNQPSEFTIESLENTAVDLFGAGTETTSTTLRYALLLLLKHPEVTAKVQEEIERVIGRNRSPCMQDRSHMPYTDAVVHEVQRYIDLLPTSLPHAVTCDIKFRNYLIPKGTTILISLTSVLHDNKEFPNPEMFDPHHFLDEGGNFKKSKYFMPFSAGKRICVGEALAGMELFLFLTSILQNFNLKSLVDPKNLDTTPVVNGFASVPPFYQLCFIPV
T2 sequence (Q9HAW7 26-530): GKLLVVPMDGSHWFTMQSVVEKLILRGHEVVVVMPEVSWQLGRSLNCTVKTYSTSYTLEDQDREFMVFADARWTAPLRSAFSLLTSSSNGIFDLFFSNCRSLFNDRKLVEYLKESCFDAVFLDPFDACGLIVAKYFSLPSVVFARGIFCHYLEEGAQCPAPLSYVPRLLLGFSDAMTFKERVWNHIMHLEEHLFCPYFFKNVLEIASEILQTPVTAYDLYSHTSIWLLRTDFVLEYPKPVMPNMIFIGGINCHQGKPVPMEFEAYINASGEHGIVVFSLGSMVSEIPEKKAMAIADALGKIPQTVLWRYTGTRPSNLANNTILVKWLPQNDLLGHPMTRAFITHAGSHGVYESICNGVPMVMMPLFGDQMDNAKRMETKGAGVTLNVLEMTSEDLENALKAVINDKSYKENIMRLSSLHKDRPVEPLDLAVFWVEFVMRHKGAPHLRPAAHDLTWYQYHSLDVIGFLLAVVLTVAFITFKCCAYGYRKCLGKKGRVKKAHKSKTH
T1 sequence (Q9HAW8 26-530): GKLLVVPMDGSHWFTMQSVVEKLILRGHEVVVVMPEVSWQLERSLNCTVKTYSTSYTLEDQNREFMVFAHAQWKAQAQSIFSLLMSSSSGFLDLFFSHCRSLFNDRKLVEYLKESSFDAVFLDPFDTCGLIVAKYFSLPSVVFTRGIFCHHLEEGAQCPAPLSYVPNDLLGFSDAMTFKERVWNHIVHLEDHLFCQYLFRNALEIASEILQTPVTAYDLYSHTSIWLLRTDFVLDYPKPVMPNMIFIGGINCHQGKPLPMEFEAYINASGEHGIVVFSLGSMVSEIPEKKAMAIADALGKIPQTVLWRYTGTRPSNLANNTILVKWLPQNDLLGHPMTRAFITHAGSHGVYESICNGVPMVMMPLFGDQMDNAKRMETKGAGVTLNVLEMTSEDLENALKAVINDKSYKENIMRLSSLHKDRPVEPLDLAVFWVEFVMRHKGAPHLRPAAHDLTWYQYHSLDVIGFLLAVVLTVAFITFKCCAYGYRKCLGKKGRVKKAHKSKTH
T3 sequence (Q9HAW9 26-530): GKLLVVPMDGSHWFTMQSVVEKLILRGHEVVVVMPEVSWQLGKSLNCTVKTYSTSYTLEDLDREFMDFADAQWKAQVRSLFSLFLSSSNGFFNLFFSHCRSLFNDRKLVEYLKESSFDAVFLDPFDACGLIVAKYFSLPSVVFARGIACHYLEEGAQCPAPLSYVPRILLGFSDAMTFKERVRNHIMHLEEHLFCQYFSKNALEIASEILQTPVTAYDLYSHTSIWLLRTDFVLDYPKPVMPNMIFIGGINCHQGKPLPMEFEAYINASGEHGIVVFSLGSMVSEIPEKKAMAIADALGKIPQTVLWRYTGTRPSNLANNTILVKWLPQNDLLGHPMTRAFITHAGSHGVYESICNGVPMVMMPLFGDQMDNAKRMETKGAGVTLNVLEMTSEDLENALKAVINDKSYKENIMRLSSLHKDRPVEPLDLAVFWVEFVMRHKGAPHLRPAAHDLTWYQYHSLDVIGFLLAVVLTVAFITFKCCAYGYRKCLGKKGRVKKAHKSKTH

| Compound | glucuronidation activity for ticagrelor [1] | microsomal CLint (UGT1A7) [µL/min/mg] | Ksi ([2]; pooled HIM) [µM] | Vmax ([2]; pooled HIM) [pmol·min^−1·mg protein^−1] | Km ([2]; pooled HIM 0.2 mg protein/ml, 60 min, substrate inhibition kinetics) [nM] | microsomal CLint (UGT1A8) [µL/min/mg] | IC50 (CYP2C19; CYP2C19, [S]-mephenytoin 4′-hydroxylase, HLM 0.2 mg/ml) [µM] | inhibition at 10 μM (CYP2C19; human, human liver microsomes, pH 7.4, probe mephenytoin (20 μM), S-4-hydroxy mephenytoin formation, HLM, 10 μM ticagrelor-O-Glu, read-out: inhibition of CYP2C19 enzyme activity) [%] | inhibition at 100 µM (CYP2C19; human, human liver microsomes, pH 7.4, probe mephenytoin (20 μM), S-4-hydroxy mephenytoin formation, HLM, 100 μM ticagrelor-O-Glu, read-out: inhibition of CYP2C19 enzyme activity) [%] | IC50 (CYP2C9; CYP2C9, diclofenac 4′-hydroxylase, HLM 0.2 mg/ml) [µM] | inhibition at 10 μM (CYP2C9; human, human liver microsomes, pH 7.4, probe diclofenac (10 μM), 4′-hydroxylation diclofenac formation, HLM, 10 μM ticagrelor-O-Glu, read-out: inhibition of CYP2C9 enzyme activity) [%] | inhibition at 100 µM (CYP2C9; human, human liver microsomes, pH 7.4, probe diclofenac (10 μM), 4′-hydroxylation diclofenac formation, HLM, 100 μM ticagrelor-O-Glu, read-out: inhibition of CYP2C9 enzyme activity) [%] |
| --- | --- | --- | --- | --- | --- | --- | --- | --- | --- | --- | --- | --- |
| CCCSc1nc(N[C@@H]2C[C@H]2c2ccc(F)c(F)c2)c2nnn([C@@H]3C[C@H](OCCO)[C@@H](O)[C@H]3O)c2n1 [Ticagrelor] | no glucuronidation activities | 0.07 | 292.9 | 0.90 | 2520 | 0.01 |  |  |  |  |  |  |
| CCCSc1nc(N[C@@H]2C[C@H]2c2ccc(F)c(F)c2)c2nnn([C@@H]3C[C@H](OCCO[C@@H]4O[C@H](C(=O)O)[C@@H](O)[C@H](O)[C@H]4O)[C@@H](O)[C@H]3O)c2n1 [Ticagrelor-O-Glu, ticagrelor-O-glucuronide] |  |  |  |  |  |  | 18.8 | 32.7 | 83.6 | 20 | 44 | 73.5 |
